# From ChEMBL document CHEMBL1201862, “PubChem BioAssay data set” (2004)
#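 Five compound concentrations were applied to cells in 96-well plates for 48 hours; endpoints were derived by simple linear interpolation of the resulting dose-response curve. GI50: concentration for 50% inhibition of growth.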 Active and inactive are the calls of the source. Rule as the data show it: active = GI50 up to about 1.1 µM and inactive = higher.
# Columns and labels:
# Assay in all cases: growth of human tumour cells (NCI), 48 h
# NCI-H23 = tested on: NCI-H23
# HCT-15 = tested on: HCT-15
# SNB-19 = tested on: SNB-19
# UACC-62 = tested on: UACC-62
# MDA-MB-435 = tested on: MDA-MB-435
# SK-MEL-5 = tested on: SK-MEL-5
# T47D = tested on: T47D
# Malme-3M = tested on: Malme-3M
# MDA-N = tested on: MDA-N
# TK-10 = tested on: TK-10
# ACHN = tested on: ACHN
# NCI/ADR-RES = tested on: NCI/ADR-RES
# IGROV-1 = tested on: IGROV-1
# CAKI-1 = tested on: CAKI-1
# MDA-MB-231 = tested on: MDA-MB-231
# SN12C = tested on: SN12C
# HCT-116 = tested on: HCT-116
# A498 = tested on: A498
# EKVX = tested on: EKVX
# SNB-75 = tested on: SNB-75
Compound,GI50 (NCI-H23),GI50 (HCT-15) [µM],GI50 (SNB-19),GI50 (UACC-62),GI50 (MDA-MB-435),GI50 (SK-MEL-5),GI50 (T47D),GI50 (Malme-3M),GI50 (MDA-N),GI50 (TK-10),GI50 (ACHN),GI50 (NCI/ADR-RES),GI50 (IGROV-1),GI50 (CAKI-1),GI50 (MDA-MB-231),GI50 (SN12C),GI50 (HCT-116),GI50 (A498),GI50 (EKVX),GI50 (SNB-75)
Cc1ccc(C(=O)/C=C2\Nc3ccccc3NC2=O)cc1,8.05 µM (inactive),56.6,10.6 µM (inactive),2.26 µM (inactive),10.9 µM (inactive),10.4 µM (inactive),2.65 µM (inactive),2.48 µM (inactive),32.6 µM (inactive),2.1 µM (inactive),3.4 µM (inactive),5.13 µM (inactive),1.07 µM (active),2.44 µM (inactive),2.78 µM (inactive),5.58 µM (inactive),2.17 µM (inactive),20.5 µM (inactive),2.96 µM (inactive),–
O=C(O)c1cc(O)c2c(c1)C([C@@H]1c3cccc(O)c3C(=O)c3c(O)cc(C(=O)O)cc31)c1cccc(O)c1C2=O (stereo partly specified),30.4 µM (inactive),–,57 µM (inactive),31 µM (inactive),24.6 µM (inactive),17.6 µM (inactive),59.6 µM (inactive),23.7 µM (inactive),20.3 µM (inactive),99.1 µM (inactive),81.5 µM (inactive),43.8 µM (inactive),22.9 µM (inactive),> 100 µM (inactive),23.5 µM (inactive),34.7 µM (inactive),20.4 µM (inactive),22.7 µM (inactive),37.2 µM (inactive),25.3 µM (inactive)
O=C(C1OC1c1ccc(Br)cc1O)C12CC3CC(CC(C3)C1)C2 (stereo unspecified),19.2 µM (inactive),19.4,34.8 µM (inactive),15.5 µM (inactive),13.8 µM (inactive),19.5 µM (inactive),40.8 µM (inactive),20 µM (inactive),17 µM (inactive),33.9 µM (inactive),33.9 µM (inactive),30 µM (inactive),32 µM (inactive),–,18.1 µM (inactive),15.6 µM (inactive),14.9 µM (inactive),97.3 µM (inactive),> 100 µM (inactive),14.5 µM (inactive)
Brc1ccc(C2CC3(c4ccccc4)ON=C(c4ccccc4)N3c3ccccc3S2)cc1 (stereo unspecified),> 100 µM (inactive),> 100,> 100 µM (inactive),> 100 µM (inactive),> 100 µM (inactive),> 100 µM (inactive),> 100 µM (inactive),> 100 µM (inactive),> 100 µM (inactive),> 100 µM (inactive),> 100 µM (inactive),> 100 µM (inactive),> 100 µM (inactive),–,> 100 µM (inactive),> 100 µM (inactive),5.87 µM (inactive),> 100 µM (inactive),> 100 µM (inactive),> 100 µM (inactive)
C=CCCCCOC1C=CC(O)C(CO)O1 (stereo unspecified),> 100 µM (inactive),> 100,> 100 µM (inactive),> 100 µM (inactive),> 100 µM (inactive),> 100 µM (inactive),> 100 µM (inactive),> 100 µM (inactive),> 100 µM (inactive),> 100 µM (inactive),> 100 µM (inactive),> 100 µM (inactive),> 100 µM (inactive),> 100 µM (inactive),> 100 µM (inactive),> 100 µM (inactive),> 100 µM (inactive),> 100 µM (inactive),> 100 µM (inactive),–
CC/C(Cl)=N\OC(=O)Nc1ccc(F)cc1F,20 µM (inactive),2.34,25.4 µM (inactive),15.2 µM (inactive),17 µM (inactive),6.12 µM (inactive),6.28 µM (inactive),2.9 µM (inactive),5.87 µM (inactive),12 µM (inactive),1.89 µM (inactive),17.8 µM (inactive),15.9 µM (inactive),1.71 µM (inactive),17.5 µM (inactive),5.73 µM (inactive),6.62 µM (inactive),28.3 µM (inactive),8.55 µM (inactive),20.6 µM (inactive)
COc1cc(NS(C)(=O)=O)ccc1Nc1ccnc2ccc3[nH]ccc3c12,13.7 µM (inactive),58.3,15.5 µM (inactive),17.8 µM (inactive),15.6 µM (inactive),15.3 µM (inactive),14.9 µM (inactive),14.1 µM (inactive),16.2 µM (inactive),16.3 µM (inactive),18.4 µM (inactive),> 100 µM (inactive),16.1 µM (inactive),17.3 µM (inactive),11.6 µM (inactive),14.4 µM (inactive),12.2 µM (inactive),16.8 µM (inactive),19.4 µM (inactive),–
CCc1n[nH]c(=O)n1-c1ccncc1,> 100 µM (inactive),> 100,> 100 µM (inactive),–,> 100 µM (inactive),> 100 µM (inactive),> 100 µM (inactive),> 100 µM (inactive),> 100 µM (inactive),> 100 µM (inactive),> 100 µM (inactive),> 100 µM (inactive),> 100 µM (inactive),> 100 µM (inactive),> 100 µM (inactive),> 100 µM (inactive),> 100 µM (inactive),> 100 µM (inactive),> 100 µM (inactive),> 100 µM (inactive)
CC(C)(C)OC(=O)NC1CC=CCC1NC(=O)OC(C)(C)C (stereo unspecified),> 100 µM (inactive),> 100,> 100 µM (inactive),> 100 µM (inactive),> 100 µM (inactive),97.7 µM (inactive),> 100 µM (inactive),> 100 µM (inactive),> 100 µM (inactive),> 100 µM (inactive),> 100 µM (inactive),> 100 µM (inactive),> 100 µM (inactive),> 100 µM (inactive),> 100 µM (inactive),> 100 µM (inactive),> 100 µM (inactive),> 100 µM (inactive),–,> 100 µM (inactive)
CSc1nc2c(c(N(C)C)n1)C=Nn1c(nc3ccccc31)S2,> 100 µM (inactive),> 100,> 100 µM (inactive),83 µM (inactive),> 100 µM (inactive),52.1 µM (inactive),64.1 µM (inactive),91 µM (inactive),95.1 µM (inactive),> 100 µM (inactive),61.2 µM (inactive),> 100 µM (inactive),> 100 µM (inactive),> 100 µM (inactive),78.2 µM (inactive),> 100 µM (inactive),57.7 µM (inactive),> 100 µM (inactive),–,64.1 µM (inactive)
COC(=O)/C(C#N)=C(\Nc1ccccc1)N1CCCC1,> 100 µM (inactive),> 100,> 100 µM (inactive),–,> 100 µM (inactive),> 100 µM (inactive),> 100 µM (inactive),> 100 µM (inactive),> 100 µM (inactive),> 100 µM (inactive),> 100 µM (inactive),> 100 µM (inactive),> 100 µM (inactive),> 100 µM (inactive),> 100 µM (inactive),> 100 µM (inactive),> 100 µM (inactive),> 100 µM (inactive),> 100 µM (inactive),> 100 µM (inactive)
Cc1nc2ccccc2c(=O)n1NC(=O)c1ccc(CS)cc1,15.6 µM (inactive),16.4,38.2 µM (inactive),6.58 µM (inactive),12.9 µM (inactive),3.92 µM (inactive),16.7 µM (inactive),27.9 µM (inactive),> 10 µM (inactive),> 10 µM (inactive),10.9 µM (inactive),28.6 µM (inactive),8.59 µM (inactive),–,13 µM (inactive),11.9 µM (inactive),4.4 µM (inactive),11.2 µM (inactive),4.76 µM (inactive),14.9 µM (inactive)
CC(C)=C[C@@H]1C[C@H](n2cc(C)c(=O)[nH]c2=O)ON1CCO,–,> 100,> 100 µM (inactive),> 100 µM (inactive),> 100 µM (inactive),> 100 µM (inactive),> 100 µM (inactive),> 100 µM (inactive),> 100 µM (inactive),> 100 µM (inactive),> 100 µM (inactive),> 100 µM (inactive),> 100 µM (inactive),> 100 µM (inactive),> 100 µM (inactive),> 100 µM (inactive),> 100 µM (inactive),> 100 µM (inactive),> 100 µM (inactive),> 100 µM (inactive)
Cc1cc(N2CCCC2)c([N+](=O)[O-])cc1[N+](=O)[O-],> 100 µM (inactive),> 100,> 100 µM (inactive),> 100 µM (inactive),> 100 µM (inactive),> 100 µM (inactive),> 100 µM (inactive),> 100 µM (inactive),> 100 µM (inactive),–,> 100 µM (inactive),> 100 µM (inactive),> 100 µM (inactive),> 100 µM (inactive),> 100 µM (inactive),> 100 µM (inactive),> 100 µM (inactive),> 100 µM (inactive),> 100 µM (inactive),> 100 µM (inactive)
C/C(=N\Nc1nc2ccccc2o1)c1cccc[n+]1[O-],26.6 µM (inactive),4.88,64.7 µM (inactive),46.1 µM (inactive),44 µM (inactive),23.9 µM (inactive),2.89 µM (inactive),2.27 µM (inactive),60.7 µM (inactive),3.52 µM (inactive),12.6 µM (inactive),3.6 µM (inactive),16.1 µM (inactive),2.69 µM (inactive),60.3 µM (inactive),18.6 µM (inactive),4.84 µM (inactive),45.1 µM (inactive),11 µM (inactive),–
